Consider 14 compounds from patent publication US20260137819A1 (Radionetics Oncology, Inc., priority 2022, published 2026).

The EC50 is the midpoint of the concentration-response curve.

A value given as a limit tells only on which side of the number the result lay.

For the first test, the target named is T1, human follicle-stimulating hormone receptor (FSHR) (Homo sapiens, UniProt P23945).
T1 construct: host or cells: CHO-K1
T1 sequence (P23945 18-695): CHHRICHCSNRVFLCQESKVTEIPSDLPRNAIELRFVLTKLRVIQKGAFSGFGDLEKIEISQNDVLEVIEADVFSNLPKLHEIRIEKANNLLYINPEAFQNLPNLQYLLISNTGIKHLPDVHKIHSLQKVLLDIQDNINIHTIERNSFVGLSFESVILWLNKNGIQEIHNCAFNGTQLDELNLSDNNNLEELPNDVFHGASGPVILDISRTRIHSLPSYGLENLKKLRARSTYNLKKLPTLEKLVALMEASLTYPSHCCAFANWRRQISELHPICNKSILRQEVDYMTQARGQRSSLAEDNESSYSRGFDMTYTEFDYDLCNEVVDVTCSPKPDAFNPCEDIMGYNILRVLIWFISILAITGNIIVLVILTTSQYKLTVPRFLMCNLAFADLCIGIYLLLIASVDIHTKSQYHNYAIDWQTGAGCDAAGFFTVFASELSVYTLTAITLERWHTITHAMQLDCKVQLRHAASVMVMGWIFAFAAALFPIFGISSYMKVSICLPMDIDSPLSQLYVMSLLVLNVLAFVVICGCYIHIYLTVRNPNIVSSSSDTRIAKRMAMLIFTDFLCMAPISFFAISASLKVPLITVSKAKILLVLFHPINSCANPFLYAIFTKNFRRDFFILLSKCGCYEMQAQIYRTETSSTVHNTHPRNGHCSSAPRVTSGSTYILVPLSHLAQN
The experiment in a line: Measurement of agonist cAMP production by activation of human FSHR. Type of test: cell-based. The following applies: CHO-K1 human FSHR cells, 30 minutes at 37° C., HTRF cAMP kit; read-out: hFSHR Agonist cAMP EC50. Here is the method: Measurement of agonist cAMP production by activation of human FSHR
Two days prior to the assay, 5,000 CHO—K1 human FSHR cells (Eurofins #95-0119C2) stably expressing the functional human follicle-stimulating hormone receptor were plated in a 96-well tissue culture-treated plate in growth media supplemented with the appropriate selection agent. […] The cells were incubated for 30 minutes at 37° C. (the final concentrations of the compound ranged from 0-10,000 nM). After the 30-minute incubation at 37° C., lysis buffer (HRTF CAMP kit, Cisbio #62AM5PEB)w as added directly to the cells and incubated for 30-minutes at room temperature. The diluted lysate was transferred and CAMP detection and visualization antibodies (HRTF CAMP kit, Cisbio #62AM5PEB) were added and incubated for 1-24 hours at room temperature. The time-resolved fluorescent signal was read with a Tecan M1000Pro (Tecan) multiplate reader. The intracellular cAMP concentrations were calculated by regression to a standard curve and were plotted vs. the concentration of the agonists. The concentration of test compound or FSH required to generate a half maximal response EC50 were calculated using standard curve-fitting methods. All data manipulations were performed using GraphPad Prism v9.3.1 (GraphPad, San Diego, CA).
On the technique in general: cAMP levels reflect the balance of adenylyl cyclase and phosphodiesterase activity.
For the compound `COc1cc2c(cc1-c1cccc(NC(=O)CCCCCNC(=O)C(CS(=O)(=O)O)NC(=O)CN3CCN(CC(=O)O)CCN(CC(=O)O)CCN(CC(=O)O)CC3)c1)-c1c(c(C(=O)N3CCOCC3(C)C)nn1-c1cc(Cl)cc(Cl)c1)CO2` (stereo in doubt) [Compound 64, (R)-2,2′,2″-(10-(2-((1-((6-((3-(1-(3,5-dichlorophenyl)-3-(3,3-dimethylmorpholine-4-carbonyl)-7-methoxy-1,4-dihydrochromeno[4,3-c]pyrazol-8-yl)phenyl)amino)-6-oxohexyl)amino)-1-oxo-3-sulfopropan-2-yl)amino)-2-oxoethyl)-1,4,7,10-tetraazacyclododecane-1,4,7-triyl)triacetic acid], the EC50 was below 10 nM.

Take `COc1cc2c(cc1-c1cccc(NC(=O)NCCOCCOCCOCCOCCOCCOCCNC(=O)CN3CCN(CC(=O)O)CCN(CC(=O)O)CCN(CC(=O)O)CC3)c1)-c1c(c(C(=O)N(C)C(C)(C)C)nn1-c1cc(Cl)cc(Cl)c1)CO2` [Compound 1, 2,2′,2″-(10-(1-((3-(3-(tert-butyl(methyl)carbamoyl)-1-(3,5-dichlorophenyl)-7-methoxy-1,4-dihydrochromeno[4,3-c]pyrazol-8-yl)phenyl)amino)-1,24-dioxo-5,8,11,14,17,20-hexaoxa-2,23-diazapentacosan-25-yl)-1,4,7,10-tetraazacyclododecane-1,4,7-triyl)triacetic acid]: the EC50 was below 10 nM.

Turning to `COc1cc2c(cc1-c1cccc(NC(=O)NCCOCCOCCOCCOCCNC(=O)CN3CCN(CC(=O)O)CCN(CC(=O)O)CCN(CC(=O)O)CC3)c1)-c1c(c(C(=O)N(C)C(C)(C)C)nn1-c1cc(Cl)cc(Cl)c1)CO2` [Compound 2, 2,2′,2″-(10-(1-((3-(3-(tert-butyl(methyl)carbamoyl)-1-(3,5-dichlorophenyl)-7-methoxy-1,4-dihydrochromeno|4,3-c|pyrazol-8-yl)phenyl)amino)-1,18-dioxo-5,8,11,14-tetraoxa-2,17-diazanonadecan-19-yl)-1,4,7,10-tetraazacyclododecane-1,4,7-triyl)triacetic acid], the EC50 was below 10 nM.

Take `COc1cc2c(cc1-c1cccc(NC(=O)CCOCCOCCOCCOCCOCCOCCNC(=O)CN3CCN(CC(=O)O)CCN(CC(=O)O)CCN(CC(=O)O)CC3)c1)-c1c(c(C(=O)N(C)C(C)(C)C)nn1-c1cc(Cl)cc(Cl)c1)CO2` [Compound 3A, indium (III) 2,2′,2″-(10-(24-((3-(3-(tert-butyl(methyl)carbamoyl)-1-(3,5-dichlorophenyl)-7-methoxy-1,4-dihydrochromeno[4,3-c]pyrazol-8-yl)phenyl)amino)-2,24-dioxo-6,9,12,15,18,21-hexaoxa-3-azatetracosyl)-1,4,7,10-tetraazacyclododecane-1,4,7-triyl)triacetate]: the 50% effective concentration (EC50) was below 10 nM.

For the compound `COc1cc2c(cc1-c1cccc(C(=O)NCCOCCOCCOCCOCCOCCOCCNC(=O)CN3CCN(CC(=O)O)CCN(CC(=O)O)CCN(CC(=O)O)CC3)c1)-c1c(c(C(=O)N(C)C(C)(C)C)nn1-c1cc(Cl)cc(Cl)c1)CO2` [Compound 4], the EC50 is below 10 nM.

Consider `COc1cc2c(cc1-c1ccc(NC(=O)NCCOCCOCCOCCOCCOCCOCCNC(=O)CN3CCN(CC(=O)O)CCN(CC(=O)O)CCN(CC(=O)O)CC3)cc1)-c1c(c(C(=O)N(C)C(C)(C)C)nn1-c1cc(Cl)cc(Cl)c1)CO2` [Compound 5, 2,2′,2″-(10-(1-((4-(3-(tert-butyl(methyl)carbamoyl)-1-(3,5-dichlorophenyl)-7-methoxy-1,4-dihydrochromeno[4,3-c]pyrazol-8-yl)phenyl)amino)-1,24-dioxo-5,8,11,14,17,20-hexaoxa-2,23-diazapentacosan-25-yl)-1,4,7,10-tetraazacyclododecane-1,4,7-triyl)triacetic acid], for which the concentration for a half-maximal effect (EC50) lay in the range of 10 to 100 nM.

For the compound `COc1cc2c(cc1-c1ccc(NC(=O)NCCOCCOCCOCCOCCOCCOCCNC(=O)CN3CCN(CC(=O)O)CCN(CC(=O)O)CCN(CC(=O)O)CC3)cc1)-c1c(c(C(=O)N(C)C(C)(C)C)nn1-c1cc(Cl)cc(Cl)c1)CO2` [Compound 5A, indium (III) 2,2′,2″-(10-(1-((4-(3-(tert-butyl(methyl)carbamoyl)-1-(3,5-dichlorophenyl)-7-methoxy-1,4-dihydrochromeno[4,3-c]pyrazol-8-yl)phenyl)amino)-1,24-dioxo-5,8,11,14,17,20-hexaoxa-2,23-diazapentacosan-25-yl)-1,4,7,10-tetraazacyclododecane-1,4,7-triyl)triacetate], the half-maximal effective concentration (EC50) was below 10 nM.

As for `COc1cc2c(cc1-c1ccc(NC(=O)NCCOCCOCCOCCOCCNC(=O)CN3CCN(CC(=O)O)CCN(CC(=O)O)CCN(CC(=O)O)CC3)cc1)-c1c(c(C(=O)N(C)C(C)(C)C)nn1-c1cc(Cl)cc(Cl)c1)CO2` [Compound 6, 2,2′,2″-(10-(1-((4-(3-(tert-butyl(methyl)carbamoyl)-1-(3,5-dichlorophenyl)-7-methoxy-1,4-dihydrochromeno|4,3-clpyrazol-8-yl)phenyl)amino)-1,18-dioxo-5,8,11,14-tetraoxa-2,17-diazanonadecan-19-yl)-1,4,7,10-tetraazacyclododecane-1,4,7-triyl)triacetic acid], the 50% effective concentration (EC50) is below 10 nM.

For `COc1cc2c(cc1-c1cccc(NC(=O)NCCOCCOCCOCCOCCOCCOCCNC(=O)CN3CCN(CC(=O)O)CCN(CC(=O)O)CCN(CC(=O)O)CC3)c1)-c1c(c(C(=O)N3CCOCC3(C)C)nn1-c1cc(Cl)cc(Cl)c1)CO2` [Compound 7], the EC50 is below 10 nM.

For `COc1cc2c(cc1-c1cccc(NC(=O)NCCOCCOCCOCCOCCNC(=O)CN3CCN(CC(=O)O)CCN(CC(=O)O)CCN(CC(=O)O)CC3)c1)-c1c(c(C(=O)N3CCOCC3(C)C)nn1-c1cc(Cl)cc(Cl)c1)CO2` [Compound 8, 2,2′,2″-(10-(1-((3-(1-(3,5-dichlorophenyl)-3-(3,3-dimethylmorpholine-4-carbonyl)-7-methoxy-1,4-dihydrochromeno[4,3-c]pyrazol-8-yl)phenyl)amino)-1,18-dioxo-5,8,11,14-tetraoxa-2,17-diazanonadecan-19-yl)-1,4,7,10-tetraazacyclododecane-1,4,7-triyl)triacetic acid], the EC50 lay within 10 to 100 nM.

Regarding `COc1cc2c(cc1-c1cccc(NC(=O)NCCOCCOCCOCCOCCNC(=O)CN3CCN(CC(=O)O)CCN(CC(=O)O)CCN(CC(=O)O)CC3)c1)-c1c(c(C(=O)N3CCOCC3(C)C)nn1-c1cc(Cl)cc(Cl)c1)CO2` [Compound 8A], the 50% effective concentration (EC50) was below 10 nM.

Consider `COc1cc2c(cc1-c1cccc(NC(=O)C3CCN(C(=O)CN4CCN(CC(=O)O)CCN(CC(=O)O)CCN(CC(=O)O)CC4)CC3)c1)-c1c(c(C(=O)N3CCOCC3(C)C)nn1-c1cc(Cl)cc(Cl)c1)CO2` [Compound 9, 2,2′,2″-(10-(2-(4-((3-(1-(3,5-dichlorophenyl)-3-(3,3-dimethylmorpholine-4-carbonyl)-7-methoxy-1,4-dihydrochromeno[4,3-c]pyrazol-8-yl)phenyl)carbamoyl)piperidin-1-yl)-2-oxoethyl)-1,4,7,10-tetraazacyclododecane-1,4,7-triyl)triacetic acid], for which the EC50 fell in the range of 10 to 100 nM.

Consider `COc1cc2c(cc1-c1cccc(NC(=O)NCCNC(=O)CCOCCNC(=O)CN3CCN(CC(=O)O)CCN(CC(=O)O)CCN(CC(=O)O)CC3)c1)-c1c(c(C(=O)N3CCOCC3(C)C)nn1-c1cc(Cl)cc(Cl)c1)CO2` [Compound 10, 2,2′,2″-(10-(1-((3-(1-(3,5-dichlorophenyl)-3-(3,3-dimethylmorpholine-4-carbonyl)-7-methoxy-1,4-dihydrochromeno[4,3-c]pyrazol-8-yl)phenyl)amino)-1,6,13-trioxo-9-oxa-2,5,12-triazatetradecan-14-yl)-1,4,7,10-tetraazacyclododecane-1,4,7-triyl)triacetic acid], for which the 50% effective concentration (EC50) is below 10 nM.

The test is the same for the next values; noted with them: hFSHR Agonist cAMP EC50, CHO-K1 human FSHR cells, 30 minutes at 37° C., HTRF cAMP kit.
Regarding `COc1cc2c(cc1-c1cccc(NC(=O)CCC(=O)NC3CCN(C(=O)CN4CCN(CC(=O)O)CCN(CC(=O)O)CCN(CC(=O)O)CC4)CC3)c1)-c1c(c(C(=O)N3CCOCC3(C)C)nn1-c1cc(Cl)cc(Cl)c1)CO2` [Compound 11], the concentration for a half-maximal effect (EC50) was below 10 nM.
